# Data reported in a melting point compilation (Tetko et al.; mined from patent text by program, amines drawn as free bases though some values may be those of a salt).
row,SMILES,melting point [°C]
1,O=C(Nc1cccc(CN2C(=O)[C@H]3CCC[C@H]3N(C(=O)CN3C(=O)c4ccccc4C3=O)c3ccccc32)c1)c1ccccc1 (relative stereo),244 to 246
2,CCOC(=O)C1=C(C)NC(=NC#N)NC1c1cccc([N+](=O)[O-])c1 (stereo not drawn),250 to 252
3,CC(C)(C)c1cc(SC2CC(=O)N(c3ccc(N4C(=O)CC(Sc5cc(C(C)(C)C)c(O)c(C(C)(C)C)c5)C4=O)cc3)C2=O)cc(C(C)(C)C)c1O (stereo not drawn),274 to 278
4,Cc1cccc2c1C=Cc1ccccc1C2(C)O (stereo not drawn),107 to 109
5,COC(=O)C=CC=CCSc1ccc(Cl)cc1,75 to 77
6,CC(=O)Oc1ccc(C(=O)Nc2cccc(OCc3cccnc3)c2)cc1C(C)(C)C,58 to 62
7,CN(CCOc1ccc(CO)cc1)c1ncccn1,73 to 74
8,COc1ccc(CNc2nc(CN3CCC(C(=O)O)CC3)nc3oc4c(c23)CCCC4)cc1Cl,233 to 235
9,S=C(Nc1ccccc1)OC1CN2CCC1CC2 (stereo not drawn),132 to 133
10,CCCCCCCNC(=O)Nc1ccc(N2CCCCC2)cc1C(=O)NCC1CCN(C(c2ccccc2)c2ccccc2)CC1,166 to 168
11,Cc1c(C(=O)NCC(=O)O)oc2cc(-c3ccc(Cn4c(C)nc5ccccc54)cc3)ccc12,248 to 250
12,O=C1O[C@@H](CNC(=S)C(F)F)CN1c1ccc(N2CCCS(=O)(=O)CC2)c(F)c1,128 to 130
13,CN1C(=O)C(NC(=O)Nc2ccccc2Cl)N=C(c2ccccc2)c2ccccc21 (stereo not drawn),212 to 214
14,CCCC1CCCCc2c1oc(=O)c(C(c1ccccc1)C1CC1)c2O (stereo not drawn),60 to 65
15,COc1ccc(CC(N)=O)cc1C(=O)NCc1ccc(C(F)(F)F)cc1,192 to 193
16,O=C(O)Cn1c(=O)sc2cc(-c3ccccc3)c(Cl)cc21,262 to 266
17,O=C(O)COc1ccc(SCc2ccc(OCc3cc(Cl)cc(Cl)c3)cc2)c2c1CCC2,134 to 135
18,CCCCCCCCCCCCCCCCCCOc1cc(NC(C)=O)cc([N+](=O)[O-])c1,103 to 107
19,Cc1ccccc1-c1nc(N)ncc1-c1ccc(=O)n(C)n1,229

row,SMILES,melting point [°C]
1,Oc1cccc(Oc2nnc(Cc3ccncc3)c3ccccc23)c1,206 to 207
2,CN(O)C(=O)c1ccc(OCCOc2ccccc2)cc1,134 to 136
3,COc1cnc(-c2cccn3nc(Nc4ccc(C5CCN(C(=O)OC(C)(C)C)CC5)cc4)nc23)cn1,193 to 195
4,CCOc1cc(OC)cc(OC(=O)CC)c1C(=O)C=Cc1ccc(OC)cc1,77.5
5,CCOC=Nc1c(C#N)cnn1-c1ccc(Cl)c(Cl)c1Cl,131 to 132
6,Cc1cnc2n1-c1ccc(Cl)cc1C(c1ccccc1Cl)=NC2,148 to 149
7,CC1(CCC(=O)CCCc2cccc([N+](=O)[O-])c2)C(=O)CCC1=O,81 to 83
8,O=C(NCc1ccc(Cl)nc1)C(Cl)=NNc1ccc(C(F)(F)F)cc1,172 to 173
9,O=C(O)Cc1ccc[nH]1,83 to 84
10,OCCC(c1ccccc1)C(O)(c1ccccc1)c1ccc(OCc2ccccc2)cc1 (stereo not drawn),109 to 115
11,CS(=O)(=O)c1ccc(/C(=C\C2CCCCCC2)C(=O)Nc2nccs2)cc1,163 to 165
12,O=C(Cl)c1ccc2ccccc2c1O,87 to 88
13,CC(C)(C)OC(=O)COc1ccc(C(=O)O)cc1,119 to 121
14,COc1c(O)cc(C)c(OC(=O)c2ccccc2)c1OC,109 to 111
15,O=C1C(=O)N2c3c(cccc31)OCC2c1ccccc1 (stereo not drawn),169 to 171
16,CCOC(=O)c1cn2c3c(c(F)c(F)c(F)c3c1=O)C(C(=O)OC(C)(C)C)(C(=O)OC(C)(C)C)CN2C,169 to 173
17,Cc1cn(-c2nc(C)cc3[nH]c(=O)ccc23)cn1,307 to 308
18,CCCCC(=O)c1ccc(OCC(=O)O)c(Cl)c1Cl,110 to 113
19,CCc1ccc(C)cc1-n1cncc1C(=O)OC,56 to 57
